Source: patent publication US20200172483A1, “HETEROCYCLIC SMALL MOLECULE MODULATORS OF HUMAN STING” (Curadev Pharma Limited, priority 2017, published 2020)

Molecular target: T1, WT/R232 STING protein (Homo sapiens, UniProt Q86WV6, H232R)
T1 construct: host or cells: HEK293T
Assay: Luciferase reporter assay in HEK293T-hSTING-Luciferase cells (R232)
Assay type: cell-based
Conditions: 20 hr stimulation, EC50 range
Text: • a) Stable STING expressing cells—Stable HEK293T STING-expressing cell lines were generated using plasmids purchased from Invivogen, CA, USA, that contain STING cDNA cloned into the pUNO-1 vector under hEF1-HTLV promoter and containing the Blasticidin selection cassette. The plasmids hSTING (R232), hSTING (H232), hSTING (HAQ) were directly procured from Invivogen while hSTING (AQ) and hSTING (Q) were derived from hSTING (HAQ) and hSTING (R232) plasmids respectively by using a PCR based site directed mutagenesis method. These vectors were individually transfected into HEK293T cells using Lipofectamine (Invitrogen) and transfected cells were selected under Blasticidin selection. These transfected cells were further subjected to clonal selection using the limiting dilution method to obtain clonally pure populations of HEK cells transfected with each of the above mentioned human STING variants. Only those clones were selected in which ligand independent activation of STING was minimal. • b) Stable Luciferase reporter gene expressing cells—Stable HEK293T Luciferase reporter gene expressing cell lines were generated using pCDNA4 plasmids under an IRF-inducible promoter. This promoter is comprised of five tandem interferon-stimulated response elements (ISRE) fused to an ISG54 minimal promoter. This vector was transfected into HEK293T cells using Lipofectamine (Invitrogen) and transfected cells were selected under Zeocin selection. These transfected cells were further subjected to clonal selection using the limiting dilution method to obtain clonally pure populations of HEK cells transfected the Luciferase reporter construct. Only those clones were selected in which ligand independent induction of luciferase was minimal.
5×10^5 clonally selected HEK293T-hSTING-Luciferase cells were seeded in 384-well plates in growth medium and stimulated with novel compounds. After 20 hr of stimulation supernatant were removed and secretary reporter gene activity were measured using the Quanti-Luc detection system (Invivogen) on a Spectramax i3X luminometer.
All compounds were first tested in a primary screen using WT/R232 STING protein to obtain a ‘fold-induction’ over baseline levels of protein activity.

T1 sequence (Q86WV6 whole entry H232R): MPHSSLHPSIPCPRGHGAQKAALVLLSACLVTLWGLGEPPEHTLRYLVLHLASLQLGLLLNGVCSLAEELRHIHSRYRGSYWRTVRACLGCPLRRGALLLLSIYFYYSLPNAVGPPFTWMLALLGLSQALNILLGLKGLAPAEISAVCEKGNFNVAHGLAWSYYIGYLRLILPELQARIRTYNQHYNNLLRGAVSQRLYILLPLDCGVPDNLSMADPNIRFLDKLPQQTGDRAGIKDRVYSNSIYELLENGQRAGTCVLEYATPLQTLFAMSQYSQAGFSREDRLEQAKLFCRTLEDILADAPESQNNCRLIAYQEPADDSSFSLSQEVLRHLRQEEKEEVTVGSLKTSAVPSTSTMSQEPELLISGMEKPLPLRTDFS

Compound	EC50 [µM]
Cc1ccc(CNC(=O)c2ccc3c(c2)N(CCc2ccccc2)C(=O)C3(C)C)o1 [Example 59, 3,3-dimethyl-N-((5-methylfuran-2-yl)methyl)-2-oxo-1-phenethylindoline-6-carboxamide]	1 to 10
Cc1ccc(CNC(=O)c2ccc3c(c2)N(CC(=O)c2ccccc2)C(=O)C3(C)C)o1 [Example 62, 3,3-dimethyl-N-((5-methylfuran-2-yl)methyl)-2-oxo-1-(2-oxo-2-phenylethyl)indoline-6-carboxamide]	> 10
COc1cc(F)c(CN2C(=O)C(C)(C)c3ccc(C(=O)NCc4c(F)cc(F)cc4F)cc32)c(F)c1 [Example 64, 1-(2,6-difluoro-4-methoxybenzyl)-3,3-dimethyl-2-oxo-N-(2,4,6-trifluorobenzyl)indoline-6-carboxamide]	≤ 1
CC1(C)C(=O)N(Cc2c(F)cc(O)cc2F)c2cc(C(=O)NCc3c(F)cc(F)cc3F)ccc21 [Example 65, 1-(2,6-difluoro-4-hydroxybenzyl)-3,3-dimethyl-2-oxo-N-(2,4,6-trifluorobenzyl)indoline-6-carboxamide]	≤ 1
COc1ccc(F)c(CN2C(=O)C(C)(C)c3ccc(C(=O)NCc4c(F)cc(F)cc4F)cc32)c1Cl [Example 66, 1-(2-chloro-6-fluoro-3-methoxybenzyl)-3,3-dimethyl-2-oxo-N-(2,4,6-trifluorobenzyl)indoline-6-carboxamide]	≤ 1
CC1(C)C(=O)N(Cc2c(F)ccc(O)c2Cl)c2cc(C(=O)NCc3c(F)cc(F)cc3F)ccc21 [Example 67, 1-(2-chloro-6-fluoro-3-hydroxybenzyl)-3,3-dimethyl-2-oxo-N-(2,4,6-trifluorobenzyl)indoline-6-carboxamide]	≤ 1
Cn1cc(CN2C(=O)C(C)(C)c3ccc(C(=O)NCc4c(F)cc(F)cc4F)cc32)cn1 [Example 68, 3,3-dimethyl-1-((1-methyl-1H-pyrazol-4-yl)methyl)-2-oxo-N-(2,4,6-trifluorobenzyl)indoline-6-carboxamide]	1 to 10
CC1(C)C(=O)N(Cc2cc(F)cc(F)c2)c2cc(C(=O)NCc3ccc(F)o3)ccc21 [Example 69, 1-(3,5-difluorobenzyl)-N-((5-fluorofuran-2-yl)methyl)-3,3-dimethyl-2-oxoindoline-6-carboxamide]	1 to 10
Cn1nccc1CN1C(=O)C(C)(C)c2ccc(C(=O)NCc3c(F)cc(F)cc3F)cc21 [Example 77, 3,3-dimethyl-1-((1-methyl-1H-pyrazol-5-yl)methyl)-2-oxo-N-(2,4,6-trifluorobenzyl)indoline-6-carboxamide]	1 to 10
Cc1cccc(-c2nc(CN3C(=O)C(C)(C)c4ccc(C(=O)NCc5c(F)cc(F)cc5F)cc43)c(C)o2)c1 [Example 78, 3,3-dimethyl-1-((5-methyl-2-(m-tolyl)oxazol-4-yl)methyl)-2-oxo-N-(2,4,6-trifluorobenzyl)indoline-6-carboxamide]	> 10
CC1(C)C(=O)N(Cc2cccc(C(N)=O)c2F)c2cc(C(=O)NCc3c(F)cc(F)cc3F)ccc21 [Example 79, 1-(3-carbamoyl-2-fluorobenzyl)-3,3-dimethyl-2-oxo-N-(2,4,6-trifluorobenzyl)indoline-6-carboxamide]	1 to 10
Cc1nn(C)cc1CN1C(=O)C(C)(C)c2ccc(C(=O)NCc3c(F)cc(F)cc3F)cc21 [Example 80, 1-((1,3-dimethyl-1H-pyrazol-4-yl)methyl)-3,3-dimethyl-2-oxo-N-(2,4,6-trifluorobenzyl)indoline-6-carboxamide]	> 10
Cc1nc(CN2C(=O)C(C)(C)c3ccc(C(=O)NCc4c(F)cc(F)cc4F)cc32)co1 [Example 83, 3,3-dimethyl-1-((2-methyloxazol-4-yl)methyl)-2-oxo-N-(2,4,6-trifluorobenzyl)indoline-6-carboxamide]	> 10
CC1(C)C(=O)N(Cc2c(F)cccc2C(F)(F)F)c2cc(C(=O)NCc3c(F)cc(F)cc3F)ccc21 [Example 84, 1-(2-fluoro-6-(trifluoromethyl)benzyl)-3,3-dimethyl-2-oxo-N-(2,4,6-trifluorobenzyl)indoline-6-carboxamide]	1 to 10

Other lines, results leading:

EC50 [µM]	Compound
1 to 10	CC1(C)C(=O)N(Cc2c(F)cccc2Cl)c2cc(C(=O)NCc3ccc(N)cc3)ccc21 [Example 85, N-(4-aminobenzyl)-1-(2-chloro-6-fluorobenzyl)-3,3-dimethyl-2-oxoindoline-6-carboxamide]
1 to 10	CC1(C)C(=O)N(Cc2c(F)cccc2Cl)c2cc(C(=O)NCc3ccc4c(c3)OCO4)ccc21 [Example 86, N-(benzo[d][1,3]dioxol-5-ylmethyl)-1-(2-chloro-6-fluorobenzyl)-3,3-dimethyl-2-oxoindoline-6-carboxamide]
> 10	CC1(C)C(=O)N(Cc2c(F)cccc2Cl)c2cc(C(=O)NCc3cccc4c3OCO4)ccc21 [Example 87, N-(benzo[d][1,3]dioxol-4-ylmethyl)-1-(2-chloro-6-fluorobenzyl)-3,3-dimethyl-2-oxoindoline-6-carboxamide]
1 to 10	CC1(C)C(=O)N(Cc2c(F)cccc2Cl)c2cc(C(=O)NCc3cc4cc(O)ccc4o3)ccc21 [Example 88, 1-(2-chloro-6-fluorobenzyl)-N-((5-hydroxybenzofuran-2-yl)methyl)-3,3-dimethyl-2-oxoindoline-6-carboxamide]
> 10	Cc1oc(-c2ccccc2)nc1CN1C(=O)C(C)(C)c2ccc(C(=O)NCc3c(F)cc(F)cc3F)cc21 [Example 91, 3,3-dimethyl-1-((5-methyl-2-phenyloxazol-4-yl)methyl)-2-oxo-N-(2,4,6-trifluorobenzyl)indoline-6-carboxamide]
> 10	CC1(C)C(=O)N(Cc2c(F)cccc2Cl)c2cc(C(=O)NCc3cccc4occc34)ccc21 [Example 93, N-(benzofuran-4-ylmethyl)-1-(2-chloro-6-fluorobenzyl)-3,3-dimethyl-2-oxoindoline-6-carboxamide]
1 to 10	CC1(C)C(=O)N(Cc2c(F)cccc2Cl)c2cc(C(=O)NCc3cc4cc([N+](=O)[O-])ccc4o3)ccc21 [Example 94, 1-(2-chloro-6-fluorobenzyl)-3,3-dimethyl-N-((5-nitrobenzofuran-2-yl)methyl)-2-oxoindoline-6-carboxamide]
> 10	CC1(C)C(=O)N(Cc2c(F)cccc2Cl)c2cc(C(=O)NCc3ccc4c(c3)CC(=O)N4)ccc21 [Example 95, 1-(2-chloro-6-fluorobenzyl)-3,3-dimethyl-2-oxo-N-((2-oxoindolin-5-yl)methyl)indoline-6-carboxamide]
1 to 10	Cn1ncc2cccc(CN3C(=O)C(C)(C)c4ccc(C(=O)NCc5c(F)cc(F)cc5F)cc43)c21 [Example 96, 3,3-dimethyl-1-((1-methyl-1H-indazol-7-yl)methyl)-2-oxo-N-(2,4,6-trifluorobenzyl)indoline-6-carboxamide]
1 to 10	CC1(C)C(=O)N(Cc2ccccn2)c2cc(C(=O)NCc3c(F)cc(F)cc3F)ccc21 [Example 99, 3,3-dimethyl-2-oxo-1-(pyridin-2-ylmethyl)-N-(2,4,6-trifluorobenzyl)indoline-6-carboxamide]
> 10	CC1(C)C(=O)N(Cc2nc3ccccc3o2)c2cc(C(=O)NCc3c(F)cc(F)cc3F)ccc21 [Example 101, 1-(benzo[d]oxazol-2-ylmethyl)-3,3-dimethyl-2-oxo-N-(2,4,6-trifluorobenzyl)indoline-6-carboxamide]
1 to 10	CC1(C)C(=O)N(Cc2cccc3c2OC(F)(F)O3)c2cc(C(=O)NCc3c(F)cc(F)cc3F)ccc21 [Example 105, 1-((2,2-difluorobenzo[d][1,3]dioxol-4-yl)methyl)-3,3-dimethyl-2-oxo-N-(2,4,6-trifluorobenzyl)indoline-6-carboxamide]
1 to 10	Cc1cccc(C)c1CN1C(=O)C(C)(C)c2ccc(C(=O)NCc3c(F)cc(F)cc3F)cc21 [Example 110, 1-(2,6-dimethylbenzyl)-3,3-dimethyl-2-oxo-N-(2,4,6-trifluorobenzyl)indoline-6-carboxamide]
1 to 10	Cn1nc(C(F)(F)F)cc1CN1C(=O)C(C)(C)c2ccc(C(=O)NCc3c(F)cc(F)cc3F)cc21 [Example 113, 3,3-dimethyl-1-((1-methyl-3-(trifluoromethyl)-1H-pyrazol-5-yl)methyl)-2-oxo-N-(2,4,6-trifluorobenzyl)indoline-6-carboxamide]
> 10	CC1(C)C(=O)N(Cc2ccc(C(N)=O)cc2)c2cc(C(=O)NCc3c(F)cc(F)cc3F)ccc21 [Example 120, 1-(4-carbamoylbenzyl)-3,3-dimethyl-2-oxo-N-(2,4,6-trifluorobenzyl)indoline-6-carboxamide]
1 to 10	CC1(C)C(=O)N(Cc2ccc(C(N)=O)cc2F)c2cc(C(=O)NCc3c(F)cc(F)cc3F)ccc21 [Example 121, 1-(4-carbamoyl-2-fluorobenzyl)-3,3-dimethyl-2-oxo-N-(2,4,6-trifluorobenzyl)indoline-6-carboxamide]
